From a melting point compilation (Tetko et al.; mined from patent text by program, amines drawn as free bases though some values may be those of a salt)

| Compound | melting point [°C] |
| --- | --- |
| COC(=O)c1cscc1S(=O)(=O)Cl | 71 |
| CC(Cc1ccc(Cl)c(OC(F)(F)C(F)F)c1)NC(=O)C1C2=C(C=CC1(O)c1ccc(F)cc1)CCCC=C2 (stereo not drawn) | 174 to 175 |
| CCOC(=O)C=Cc1ccc2c(c1)ncn2-c1cccc(N2CCCCC2)c1 | 85 to 87 |
| CC(=O)Nc1ccc(C=CC(=O)N2CCc3c([nH]c4ccccc34)C2c2ccc3c(c2)OCO3)cc1 (stereo not drawn) | 185 |
| COC(=O)C1Oc2ccc(F)cc2C(C)(c2ccccc2)O1 (stereo not drawn) | 95 |
| O=C(Nc1ccc(-n2nc(C(F)(F)F)cc2OC(F)F)cc1)c1ccccc1Cl | 122 to 123 |
| CCCOc1ccc(OC)c(-c2csc(N)n2)c1 | 76 |
| O=C(c1ccccc1)C(Cc1ccc(Cl)cc1)c1cccnn1 (stereo not drawn) | 140 to 142 |
| C(=NC(c1ccccc1)c1ccccc1)c1ccccc1 | 99 to 101 |
| CN(C(=O)C1c2ccccc2COc2ccc(Br)cc21)c1ccccc1 (stereo not drawn) | 148 |
| CC1(CC2CCCC2)Cc2cc(CC(=O)O)c(Cl)c(Cl)c2C1=O (stereo not drawn) | 146 to 148 |
| OCc1nc2cc(Cl)cnc2[nH]1 | 209 to 211 |
| Clc1ccc(-c2nc(COc3ccc(CCCn4ccnc4)cc3)co2)cc1 | 116 to 117 |
| Cc1ccccc1-c1cnc(Nc2ccccn2)s1 | 155 to 160 |
| CCCCCc1ccc(C(=O)Cc2cccc(C#N)c2)cc1 | 73 |
| COc1cc2nc(S)[nH]c2cc1OC | 278 to 280 |
| CCCc1nc2c(N)nc3ccc(-c4ccccc4CO)cc3c2s1 | 194 to 196 |
| COC(=O)CCc1cc(C(=O)c2cccc(C(=O)OC)n2)ccc1OCCCC/C=C/c1ccc(OC)cc1 | 80 to 82 |
| COc1ccc(Cn2cnc3c(-c4ccco4)ncnc32)cc1 | 175 to 176 |
| COc1ccc2c(n1)c(CC[N+](=O)[O-])c1n2CCCC1 | 96 to 97 |
| CN1Cc2ccc(Cl)cc2P1(=O)c1ccccc1 (stereo not drawn) | 159 to 162 |

| Compound | melting point [°C] |
| --- | --- |
| CS(=O)(=O)c1ccc(C(Cc2ccccc2F)C(=O)Nc2nc3ccccc3o2)cc1 (stereo not drawn) | 99 to 100 |
| COc1cc2c(cc1OC)CC(=O)N(CCCN(C)C[C@H]1Cc3cc(OC)c(OC)cc31)CC2 | 98 to 100 |
| COc1cc(C)cc(OC)c1-c1nc(N)n[nH]1 | 286 |
| Cc1ccncc1-c1nc(-c2ccc(S(N)(=O)=O)cc2)cs1 | 219 |
| COc1ccc(-c2nncn2-c2ccccc2)cc1 | 139 to 140 |
| CC1(C)Nc2ccc3c(c2N1)C(=O)c1ccccc1C3=O | 235 to 237 |
| CC1(C)N=C(c2ccccc2F)c2cc([N+](=O)[O-])ccc2NC1=O | 241 |
| COc1ccc2nc3[nH]c(=O)[nH]c3cc2c1 | > 360 |
| O=C(NN1CCCCC1)c1ccc(-c2ccc(Cl)cc2)c(-c2ccc(Cl)cc2Cl)c1 | 182 |
| CN1C(=O)CC[C@]2(C)c3ccc(-c4cc(C(F)(F)F)nc5c(C(F)(F)F)cccc45)cc3CC[C@@H]12 | 100 to 106 |
| O=C(O)c1nc2n(n1)-c1cccnc1N(c1ccccc1Cl)C2 | 155 to 163 |
| O=C(O)C(Cc1ccccc1)=NNc1ccc(Cl)c(Cl)c1 | 166 to 167 |
| Fc1ccc(-c2c[nH]c(C3CCN(CC4CCCCC4)CC3)n2)cc1 | 220 to 222 |
| CCc1ccc(NC(C)=O)cc1 | 94 to 96 |
| CCCCCCCCCCNC(=O)C=C(c1ccccc1)c1ccc(N)cc1 | 90 to 100 |
| CCN(CC)CCCNC(=O)Cn1ncc(-c2ccc(NS(C)(=O)=O)cc2)c1-c1ccccc1 | 179 to 180 |
| O=C(O)CN1CCOc2ccc([N+](=O)[O-])cc2C1=O | 110 to 120 |
| O=C1c2cccc3c2N(CC3)c2ccc(Br)cc2N1CC#CCN1CCCC1 | 121 to 122 |
| Cn1cc([N+](=O)[O-])nc1CBr | 130 to 132 |
| Cc1nc2ncnn2c2c1CCN2C1CCCCCC1 | 197 to 198 |
| Cc1c2n(c3ccccc13)C(=O)C(C(O)c1cn(C(c3ccccc3)(c3ccccc3)c3ccccc3)c(C)n1)CC2 (stereo not drawn) | 135 to 136 |

Other lines, results leading:

| melting point [°C] | Compound |
| --- | --- |
| 115 | COc1nc(NC(=O)NS(=O)(=O)c2c(Br)csc2C(=O)c2cccs2)nc(OC)n1 |
| 259 to 260 | CNC(=O)NC(=O)C(CC1CCCC1)c1ccc(S(C)(=O)=O)c(Br)c1 (stereo not drawn) |
| 75 to 78 | CC(F)(C(N)=O)c1ccc(OS(=O)(=O)C(F)(F)F)cc1 (stereo not drawn) |
| 161 | Cc1cc(OC[C@@H]2CCC(=O)N2)cc(C)c1-c1cccc2c1OC[C@H]2Nc1ccc2c(c1)OC[C@H]2CC(=O)O |
| 120 to 121 | O=C(NS(=O)(=O)NCCc1ccccc1)OCc1ccccc1 |
| 230 to 235 | CSc1cc2c(cc1F)C(=O)c1cc3ccccc3cc1C2=O |
| 136 to 138 | COc1cc(OC)c2sc(-c3c(F)cccc3F)nc2c1 |
| 339 to 341 | O=c1ccn(-c2ccc(-c3ccc(=O)[nH]n3)cc2)cc1 |
| 128 to 129 | Cc1oc(C2(C)CCCCC2)nc1C(=O)O |
| 134 to 135 | COC(=O)c1cccc2oc(-c3ccccc3O)nc12 |
| 178 | Cc1cnc(CS(=O)c2cc3ccccc3[nH]2)cc1N1CCCCC1 (stereo not drawn) |
| 162 to 164 | CCOCc1nc2c(N)nc3cc(OCc4cccc([N+](=O)[O-])c4)ccc3c2n1CC(C)C |
| 159 to 160 | CC1(CN2CCN(c3ccc(C(F)(F)F)cc3)CC2)Cn2cc([N+](=O)[O-])nc2O1 (stereo not drawn) |
| 68 to 69 | CCCN(CCC)C(=O)COc1cc(C)nc(-c2ccccc2)n1 |
| 82.6 to 83.4 | COc1ccc(SCCNC(=O)c2ccc(OCC=C(C)CCC=C(C)C)cc2)nc1 |
| 208 to 212 | COc1cc2c(Nc3ccc(Cl)cc3F)ncnc2cc1OCCN(C)c1cc(C)nc(C)c1 |

| melting point [°C] | Compound |
| --- | --- |
| 144 to 146 | CCCn1nc2c(N)nc3ccccc3c2c1CCCCN1C(C)=NOC1(C)C |
| 89 to 90 | COC(=O)COc1cc(Cl)c(C(=O)CBr)cc1Cl |
| 86 to 89 | COc1ccc(C(=O)n2c(Br)c(Br)c(C#N)c2Br)cc1 |
| 273 to 275 | CC1(C)CS(=O)CC(C)(C)c2[nH]c(-c3ccccc3)nc21 |
| 126 | Cc1cnc2c([N+](=O)[O-])cccc2c1Cl |
| 33 | N#CC(=O)c1ccccc1Cl |
| 137 to 138 | CC(=O)NC[C@H]1CN(c2ccc(N3CC(C)(O[Si](C)(C)C(C)(C)C)C3)c(F)c2)C(=O)O1 |
| 195 | COC(=O)c1csc(C)c1S(=O)(=O)NC(=O)Nc1nc(C)nc(OC)n1 |
| 208 to 210 | O=c1[nH]nc2n1C=Cc1ccccc1C2 |
| 114 to 116 | CCc1cc(C=O)c(O)c(S(C)(=O)=O)c1 |
| 92 to 93 | CCCCCCCCCCCCCCCCCCNC(=O)OCC(CO)OC(=O)NC (stereo not drawn) |
| 131 to 132 | O=S(Cc1nnc(-c2ccc3c(c2)CCO3)o1)c1cccc(F)c1 (stereo not drawn) |
| 101 to 103 | O=C(O)CC=CCC(=O)NCCc1ccccc1 |
| 248 to 249 | COc1ccc(-c2nc(-c3ccc(OS(=O)(=O)O)cc3)cs2)cc1OC |
| > 300 | O=c1ccn(-c2cc3[nH]c(=O)c(=O)[nH]c3cc2[N+](=O)[O-])cc1[N+](=O)[O-] |
